Values of other authors, collected in patent US20260248126A1, “BIOCIDE” (PURGOS APS, priority 2020, published 2026).

Details: cited from earlier work

SMILES: [Cl-].[Na+] [table salt (NaCl), NaCl]
- LD50 (rat, oral): 3000 mg
